# In the supplement of paper PMC11208160:
# Test: recombinant barcode read abundance after kanamycin selection (control-corrected) (log10(CPM+1)); higher = more efficient recombination; sequences stand for … in AGTGCAGAGAAAATCGGCCAGTTTTCTCTGCCTGCAGTCCGCATGCCGT…AGATTTATGCAGCGGACTGCCTTTCTCCCAAAGTGATAAACCGGACAGTATCATGGACCGGTTTTCCCGGTAATCCGTATTTGCAAGGTTGGTTTCACT; site = the 11-nt target
# Procedure, shortened: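 Two replicates per condition were plated: chloramphenicol/ampicillin LB agar for the control, and chloramphenicol/ampicillin/kanamycin with 0.1 mM IPTG for selection. The pooled E. coli screen behind them paired targets with IS621 bridge RNA target-binding loops. Recombination efficiency is expressed from averaged, control-corrected barcode counts per million at recombinant junctions, as log10(CPM+1).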
# 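Further: IS621 recombinase and bridge RNA in Escherichia coli cells.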
row,Sequence,recombinant barcode read abundance (log10)
1,GTTTGGCCTTGGGTTCTAACCTGTTGCTT (site GTTTGGCCTAA),0.541
2,GTTTGGCCTTGGGTTCTAACCTGTTGCTT (site GTTTGTCCTAA),0.167
3,TAAAACCCTTGGGTTCTAACCTGTTGCAT (site CCGCGGACTTA),0.15
4,TAAAACCCTTGGGTTCTAACCTGTTGCAT (site TAAAACCCTAT),0.713
5,TAAAAGGCTTGGGTTCTAACCTGTTGCCT (site TAAAAGACTAG),0.102
6,TAAAAGGCTTGGGTTCTAACCTGTTGCCT (site TAAAAGCCTAG),0.0288
7,TAAAAGGCTTGGGTTCTAACCTGTTGCCT (site TAAAAGGCTAG),0.0132
8,TAAAAGGCTTGGGTTCTAACCTGTTGCCT (site TAAAAGTCTAG),0.142
9,TAAAATACTTGGGTTCTAACCTGTTGCCT (site TAAAATACTAG),0.1
10,TAAAATACTTGGGTTCTAACCTGTTGCCT (site TAGATTACTAG),0.272
11,TAACACTCTTGGGTTCTAACCTGTTGCTT (site GAACACTCTCA),0.105
12,TAACACTCTTGGGTTCTAACCTGTTGCTT (site TAACACTCTAA),1.51
13,TAACGTACTTGGGTTCTAACCTGTTGCAT (site TAACATACTAT),0.0677
14,TAACGTACTTGGGTTCTAACCTGTTGCAT (site TAACCTACTAT),0.135
15,TAACGTACTTGGGTTCTAACCTGTTGCAT (site TAACGTACTAT),0.696
16,TAACGTACTTGGGTTCTAACCTGTTGCAT (site TAACTTACTAT),0.103
17,TAACTAGCTTGGGTTCTAACCTGTTGCTA (site GTGTATACTAT),0.212
18,TAACTAGCTTGGGTTCTAACCTGTTGCTA (site TAACTAGCTTA),0.141
19,TAAGGAGCTTGGGTTCTAACCTGTTGCCT (site TAAGGAGCTAG),1.39
20,TAAGGAGCTTGGGTTCTAACCTGTTGCCT (site TAGGGCGCTAG),0.0289
21,TAAGGGACTTGGGTTCTAACCTGTTGCTA (site CGCCCTTCTAG),0.239
22,TAAGGGACTTGGGTTCTAACCTGTTGCTA (site TAAGGGACTTA),2.26

row,Sequence,recombinant barcode read abundance (log10)
1,TAAGGTACTTGGGTTCTAACCTGTTGCTT (site TAAAGTACTAA),0.0963
2,TAAGGTACTTGGGTTCTAACCTGTTGCTT (site TAACGTACTAA),0.151
3,TAAGGTACTTGGGTTCTAACCTGTTGCTT (site TAAGGTACTAA),1.26
4,TAAGGTACTTGGGTTCTAACCTGTTGCTT (site TAATGTACTAA),0.0967
5,TAAGGTCCTTGGGTTCTAACCTGTTGCAG (site TAAGGTCCTCT),2.47
6,TAAGGTCCTTGGGTTCTAACCTGTTGCAG (site TAGGGTCCTCC),0.158
7,TAAGTCACTTGGGTTCTAACCTGTTGCCT (site GAAGTCACTAG),0.0452
8,TAAGTCACTTGGGTTCTAACCTGTTGCCT (site TAAGTCACTAG),1.9
9,TAAGTGTCTTGGGTTCTAACCTGTTGCCT (site TAAGTGTCTAG),2.56
10,TAAGTGTCTTGGGTTCTAACCTGTTGCCT (site TACGTGTCTAG),0.171
11,TAAGTGTCTTGGGTTCTAACCTGTTGCCT (site TAGGTGTCTAG),0.314
12,TAAGTGTCTTGGGTTCTAACCTGTTGCCT (site TATGTGTCTAG),1.03
13,TAATGAACTTGGGTTCTAACCTGTTGCCT (site TAATGAACTAG),0.32
14,TAATGAACTTGGGTTCTAACCTGTTGCCT (site TAATGTACTAG),0.216
15,TAATGACCTTGGGTTCTAACCTGTTGCAT (site TAATGACCTAA),0.0652
16,TAATGACCTTGGGTTCTAACCTGTTGCAT (site TAATGACCTAT),1.67
17,TAATGGTCTTGGGTTCTAACCTGTTGCAT (site TAATGGTCTAT),1.61
18,TAATGGTCTTGGGTTCTAACCTGTTGCAT (site TAATGTTCTAT),0.065
19,TAATTGCCTTGGGTTCTAACCTGTTGCCT (site TAATTGCCTAG),0.645
20,TAATTGCCTTGGGTTCTAACCTGTTGCCT (site TACTTGCCTAG),0.324
21,TAATTGCCTTGGGTTCTAACCTGTTGCCT (site TAGTTGCCTAG),0.474
22,TAATTGCCTTGGGTTCTAACCTGTTGCCT (site TATTTGCCTAG),0.0725

row,Sequence,recombinant barcode read abundance (log10)
1,TACAAGCCTTGGGTTCTAACCTGTTGCCT (site TACAAGCCTAG),0.338
2,TACAAGCCTTGGGTTCTAACCTGTTGCCT (site TAGAAGCCTCG),0.0913
3,TACAAGGCTTGGGTTCTAACCTGTTGCGG (site TACAAGGCTCC),2.68
4,TACAAGGCTTGGGTTCTAACCTGTTGCGG (site TACAAGTCTCC),0.292
5,TACACAGCTTGGGTTCTAACCTGTTGCCT (site TAAACAGCTAG),0.176
6,TACACAGCTTGGGTTCTAACCTGTTGCCT (site TACACAGCTAG),0.909
7,TACACAGCTTGGGTTCTAACCTGTTGCCT (site TAGACAGCTAG),0.249
8,TACACAGCTTGGGTTCTAACCTGTTGCCT (site TATACAGCTAG),0.149
9,TACACTACTTGGGTTCTAACCTGTTGCCG (site TACACGACTCC),0.0364
10,TACACTACTTGGGTTCTAACCTGTTGCCG (site TACACTACTCG),0.177
11,TACATCCCTTGGGTTCTAACCTGTTGCCA (site TACATCCCTAG),0.5
12,TACATCCCTTGGGTTCTAACCTGTTGCCA (site TACATCCCTCG),0.0234
13,TACATCCCTTGGGTTCTAACCTGTTGCCA (site TACATCCCTGG),0.0594
14,TACATCCCTTGGGTTCTAACCTGTTGCCA (site TACATCCCTTG),0.358
15,TACATTCCTTGGGTTCTAACCTGTTGCCT (site AACATTCCTAG),0.0286
16,TACATTCCTTGGGTTCTAACCTGTTGCCT (site CACATTCCTAG),0.0666
17,TACATTCCTTGGGTTCTAACCTGTTGCCT (site GACATTCCTAG),0.179
18,TACATTCCTTGGGTTCTAACCTGTTGCCT (site TACATTCCTAG),0.156
19,TACCCTACTTGGGTTCTAACCTGTTGCCT (site AACCCTACTAG),0.0271
20,TACCCTACTTGGGTTCTAACCTGTTGCCT (site CACCCTACTAG),0.0188
21,TACCCTACTTGGGTTCTAACCTGTTGCCT (site GACCCTACTAG),0.0371
22,TACCCTACTTGGGTTCTAACCTGTTGCCT (site TACCCTACTAG),0.628

row,Sequence,recombinant barcode read abundance (log10)
1,TACCGGCCTTGGGTTCTAACCTGTTGCCT (site TAACGGCCTAG),0.288
2,TACCGGCCTTGGGTTCTAACCTGTTGCCT (site TACCGGCCTAG),0.141
3,TACCGGCCTTGGGTTCTAACCTGTTGCCT (site TAGCGGCCTAG),0.176
4,TACCGGCCTTGGGTTCTAACCTGTTGCCT (site TATCGGCCTAG),0.166
5,TACCTAGCTTGGGTTCTAACCTGTTGCGT (site TACCTAGCTAC),1.3
6,TACCTAGCTTGGGTTCTAACCTGTTGCGT (site TACCTATCTAC),0.433
7,TACCTATCTTGGGTTCTAACCTGTTGCCT (site TACCTATCTAG),1.11
8,TACCTATCTTGGGTTCTAACCTGTTGCCT (site TCCCTATCTAG),0.00692
9,TACCTATCTTGGGTTCTAACCTGTTGCCT (site TGCCTATCTAG),0.0136
10,TACCTATCTTGGGTTCTAACCTGTTGCCT (site TTCCTATCTAG),0.429
11,TACCTGACTTGGGTTCTAACCTGTTGCCT (site TACCAGACTAG),0.0067
12,TACCTGACTTGGGTTCTAACCTGTTGCCT (site TACCCGACTAG),0.355
13,TACCTGACTTGGGTTCTAACCTGTTGCCT (site TACCGGACTAG),0.106
14,TACCTGACTTGGGTTCTAACCTGTTGCCT (site TACCTGACTAG),0.688
15,TACGCCTCTTGGGTTCTAACCTGTTGCCT (site AACGCCTCTAG),0.0117
16,TACGCCTCTTGGGTTCTAACCTGTTGCCT (site CACGCCTCTAG),0.164
17,TACGCCTCTTGGGTTCTAACCTGTTGCCT (site GACGCCTCTAG),0.249
18,TACGCCTCTTGGGTTCTAACCTGTTGCCT (site TACGCCTCTAG),1.29
19,TACGTGTCTTGGGTTCTAACCTGTTGCCT (site TAAGTGTCTAG),0.408
20,TACGTGTCTTGGGTTCTAACCTGTTGCCT (site TACGTGTCTAG),2.4
